Patent US20190343860A1 (Saint Louis University, priority 2016, published 2019)
Where two headings read alike, the source gives them in different places.

Tests used:
[1] = molecular target: T1, hA1AR (Homo sapiens, UniProt P30542); experiment: Radioligand binding, membranes of CHO cells stably expressing hA1AR; conditions: species h; inhibition of binding at 10 μM
T1 construct: expressed in transfected cells
T1 sequence (P30542 1-326): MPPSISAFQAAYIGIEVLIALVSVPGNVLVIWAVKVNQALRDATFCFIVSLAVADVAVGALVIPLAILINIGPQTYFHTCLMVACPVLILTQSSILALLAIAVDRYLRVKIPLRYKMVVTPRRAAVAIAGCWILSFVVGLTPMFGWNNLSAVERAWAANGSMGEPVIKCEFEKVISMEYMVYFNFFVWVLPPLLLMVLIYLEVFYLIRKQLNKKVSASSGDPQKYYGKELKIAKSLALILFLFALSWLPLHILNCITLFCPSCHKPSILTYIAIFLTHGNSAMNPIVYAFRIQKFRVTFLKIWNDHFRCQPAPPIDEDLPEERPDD

[2] = molecular target: T2, hA2AAR (Homo sapiens, UniProt P29274); experiment: Radioligand binding, membranes of HEK293 cells stably expressing hA2AAR; conditions: species h; inhibition of binding at 10 μM
T2 construct: expressed in transfected cells
T2 sequence (P29274 whole entry): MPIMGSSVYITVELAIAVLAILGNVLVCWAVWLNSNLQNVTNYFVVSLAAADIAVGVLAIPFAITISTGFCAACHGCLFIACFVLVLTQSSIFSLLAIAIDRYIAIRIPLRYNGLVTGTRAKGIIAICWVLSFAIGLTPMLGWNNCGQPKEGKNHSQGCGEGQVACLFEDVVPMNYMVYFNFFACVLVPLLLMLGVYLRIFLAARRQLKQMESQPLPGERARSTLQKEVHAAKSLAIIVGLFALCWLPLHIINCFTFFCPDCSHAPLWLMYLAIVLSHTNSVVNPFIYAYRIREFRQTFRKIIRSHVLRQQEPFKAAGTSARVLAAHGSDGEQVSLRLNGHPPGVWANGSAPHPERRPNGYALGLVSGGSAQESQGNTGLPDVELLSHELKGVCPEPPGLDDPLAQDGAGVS

[3] = molecular target: T3, mA1AR (Mus musculus, UniProt Q60612); experiment: Radioligand binding, membranes of HEK293 cells stably expressing mA1AR; conditions: species m; inhibition of binding at 10 μM
T3 construct: expressed in transfected cells
T3 sequence (Q60612 1-326): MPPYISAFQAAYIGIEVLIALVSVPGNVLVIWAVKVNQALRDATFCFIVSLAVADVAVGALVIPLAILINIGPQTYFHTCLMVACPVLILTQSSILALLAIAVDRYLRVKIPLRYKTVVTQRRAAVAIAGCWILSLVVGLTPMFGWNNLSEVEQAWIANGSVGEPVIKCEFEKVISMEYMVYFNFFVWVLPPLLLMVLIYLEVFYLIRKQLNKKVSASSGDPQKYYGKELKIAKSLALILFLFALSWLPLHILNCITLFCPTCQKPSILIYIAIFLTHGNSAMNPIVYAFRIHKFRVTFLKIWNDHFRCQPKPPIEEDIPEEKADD

[4] = molecular target: T4, mA2AAR (Mus musculus, UniProt Q60613); experiment: Radioligand binding, membranes of HEK293 cells stably expressing mA2AAR; conditions: species m; inhibition of binding at 10 μM
T4 construct: expressed in transfected cells
T4 sequence (Q60613 whole entry): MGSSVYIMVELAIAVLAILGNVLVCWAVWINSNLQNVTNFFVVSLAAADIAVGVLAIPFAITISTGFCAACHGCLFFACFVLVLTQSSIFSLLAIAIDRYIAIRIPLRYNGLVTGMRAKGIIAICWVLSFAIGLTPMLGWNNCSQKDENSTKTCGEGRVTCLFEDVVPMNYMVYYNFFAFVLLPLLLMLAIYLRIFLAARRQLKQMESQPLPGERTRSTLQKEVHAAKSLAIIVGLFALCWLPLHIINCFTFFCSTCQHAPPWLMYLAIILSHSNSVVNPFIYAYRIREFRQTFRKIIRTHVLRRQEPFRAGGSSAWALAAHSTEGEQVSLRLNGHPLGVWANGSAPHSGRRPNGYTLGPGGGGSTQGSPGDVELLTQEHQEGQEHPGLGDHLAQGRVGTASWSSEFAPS

[5] = molecular target: T5, hA3AR (Homo sapiens, UniProt P0DMS8); experiment: cAMP assay, inhibition of forskolin-stimulated cAMP in hA3AR-transfected CHO cells; format: cell-based; conditions: species h; percentage of maximal effect of 5′-N-ethylcarboxamidoadenosine 43, each at 10 μM
T5 construct: expressed in transfected cells
T5 sequence (P0DMS8 1-318): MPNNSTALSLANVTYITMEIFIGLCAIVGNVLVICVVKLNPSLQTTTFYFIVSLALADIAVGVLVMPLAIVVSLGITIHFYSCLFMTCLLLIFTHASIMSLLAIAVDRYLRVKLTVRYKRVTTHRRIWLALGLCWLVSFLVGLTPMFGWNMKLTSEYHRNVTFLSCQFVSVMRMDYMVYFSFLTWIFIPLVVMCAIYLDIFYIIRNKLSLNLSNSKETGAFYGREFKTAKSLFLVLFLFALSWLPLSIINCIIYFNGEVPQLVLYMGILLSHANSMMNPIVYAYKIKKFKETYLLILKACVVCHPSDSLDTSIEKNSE

[6] = molecular target: T6, mA3AR (Mus musculus, UniProt Q61618); experiment: cAMP assay, inhibition of forskolin-stimulated cAMP in mAR-transfected HEK cells; format: cell-based; conditions: species m; percentage of maximal effect of 1a, from concentration-effect curves
T6 construct: expressed in transfected cells
T6 sequence (Q61618 1-319): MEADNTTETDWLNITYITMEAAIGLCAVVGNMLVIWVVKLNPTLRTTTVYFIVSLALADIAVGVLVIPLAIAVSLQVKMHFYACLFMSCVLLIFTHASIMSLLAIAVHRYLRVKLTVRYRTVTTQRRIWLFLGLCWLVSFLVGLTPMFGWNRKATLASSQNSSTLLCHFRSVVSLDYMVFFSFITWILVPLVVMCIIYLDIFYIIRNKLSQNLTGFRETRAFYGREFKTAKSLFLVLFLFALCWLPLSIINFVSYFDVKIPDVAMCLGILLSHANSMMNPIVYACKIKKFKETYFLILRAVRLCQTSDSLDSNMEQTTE

[7] = molecular target: T1, hA1AR; conditions: species h; inhibition of binding at 10 μM; tested in ref 26; cited from earlier work
[8] = molecular target: T2, hA2AAR; conditions: species h; inhibition of binding at 10 μM; tested in ref 26; cited from earlier work
[9] = molecular target: T6, mA3AR; experiment: Radioligand binding, membranes of HEK293 cells stably expressing mA3AR; conditions: species m; inhibition of binding at 10 μM
[10] = test system: isolated mouse liver mitochondria; experiment: Mitochondrial membrane potential (ΔΨm), TMRM flow cytometry of isolated mitochondria; format: biochemical; conditions: n=1
Protocol: FIG. 12. MRS5980 reduces ADP-dependent dissipation of mitochondrial membrane potential (ΔΨm). ADP (1 mM) in the presence of Complex I and II substrates reduced the ΔΨm in isolated mouse liver mitochondrial (decreased TMRM signal). The degree of dissipation ΔΨm was lessened with MRS5980 (10 μM) treatment prior to adding ADP n=1, 10,000 mitochondria counted/sample.
FIG. 13. MRS5980 reduces calcium-dependent dissipation of mitochondrial ΔΨm. The addition of Ca^2+ (0.5-15 μM) to isolated mouse liver mitochondria reduced the mitochondria ΔΨm in (decreased TMRM signal). The mitochondrial ΔΨιη was sustained with MRS5980 (10 μM) treatment. n=1, 10,000 mitochondria counted/sample.
Mitochondrial membrane potential (ΔΨm). Mitochondria from mouse & rat liver were isolated for flow cytometry as previously described. Mitochondria (57 μg) were loaded with Mitotracker DeepRed FM (50 nM) & TMRM (100 nM). Mitochondria were then treated for 5 min with MRS5980 (10 μM) or vehicle then stimulated with ADP (1 mM) or Ca^2+ (0-15 μM) for 1 min. Mitochondria (10,000 counts) were detected using Mitotracker Deep Red FM (Abs/EM 644/665 nm) signal & the ΔΨm state determined by the dynamic median fluorescence signal of TMRM using a FACSCanto II (BD Biosciences).

[11] = test system: PNSA mitochondria (saphenous nerve explants); experiment: ATP production in saphenous nerve explants after direct drug application; parameters: species or system rat; conditions: 1 μM
Protocol: FIG. 14. […] Mean±SEM, n=6/group *P=0.019 vs, t-test
ATP assays. Saphenous nerves were harvested from rats 25 days after the initiation of chemotherapy treatments, then minced & teased apart as previously described. Saphenous nerve explants were transferred to MiR05 respiratory buffer & baseline ATP samples were taken after 5 min or after 15 min treatment with MRS5980 or vehicle. ADP (1 mM), glutamate (5 mM), succinate (5 mM), […] (5 mM) were added for 5 min & samples were taken for ATP. ATP levels were measured by a flash luciferin-luciferase assay (Promega Enliten ATP Assay; Promega, Madison, Wis.) & normalized to citrate synthase activity (Sigma, St Louis, Mo.) in explants homogenates.

[12] = test system: intraepidermal nerve fibers (IENFs); conditions: rat, in vivo
[13] = Oxaliplatin-induced mechano-hypersensitivity (paw withdrawal threshold, von Frey); format: in vivo, rat; conditions: oxaliplatin 5 days, 10 mg/kg cumulative dose
Excerpt: Mean±SEM, n=6/group, ANOVA with Bonferroni comparisons. *P<0.05 vs. day 0; #P<0.05 vs. vehicle &†P<0.05 vs. Oxaliplatin.

[14] = test system: intraepidermal nerve fibers (IENFs); experiment: Incidence of intraepidermal nerve fibers (IENFs) in chemotherapy-treated rats; conditions: chemotherapeutic alone; p<0.05 vs. Naive

Row | % inhibition A1 [3] | % inhibition A2A [4] | % efficacy [5] | Structure (SMILES) | % inhibition A1 [7] | % inhibition A2A [8] | also measured
1 | (39% ± 6%) | (13% ± 2%) | 4.1 ± 1.2% | O[C@@H]1[C@H](O)[C@@H]2C[C@@H]2[C@H]1n1cnc2c(NCCc3ccccc3)nc(C#Cc3ccccc3)nc21 [Cmpd 14] | (30% ± 8%) | (22% ± 5%) | 
2 |  | (0%) | 3.5 ± 3.2% | O[C@@H]1[C@H](O)[C@@H]2C[C@@H]2[C@H]1n1cnc2c(NCc3cccc(Cl)c3)nc(C#Cc3ccc(-c4ccccc4)cc3)nc21 [Cmpd 13] | (48% ± 4%) | (12% ± 7%) | 
3 | (50% ± 5% | (2% ± 1%) | 101 ± 5.9% | CNC(=O)[C@@]12C[C@@H]1[C@@H](n1cnc3c(NCc4cccc(Cl)c4)nc(C#Cc4ccccc4)nc31)[C@H](O)[C@@H]2O [Cmpd 5] | (20% ± 3%) | (27% ± 3%) | 
4 | (23% ± 1%) | (16% ± %) | 2.6 ± 1.3% | O[C@@H]1[C@H](O)[C@@H]2C[C@@H]2[C@H]1n1cnc2c(NCC(c3ccccc3)c3ccccc3)nc(C#Cc3ccccc3Cl)nc21 [Cmpd 15] | (26% ± 4%) | (22% ± 2%) | % inhibition A3 [9]: (54 ± 3%)
5 |  |  | 4.5 ± 4.9% | O[C@@H]1[C@H](O)[C@@H]2C[C@@H]2[C@H]1n1cnc2c(NCc3cccc(Cl)c3)nc(C#Cc3cccc(Cl)c3)nc21 [Cmpd 12] |  |  | 
6 | (18% ± 2%) | (1% ± 2%) | 7.2% | O=S(=O)(O)c1ccc(CCNc2nc(C#Cc3ccccc3)nc3c2ncn3[C@H]2[C@H](O)[C@H](O)[C@@H]3C[C@@H]32)cc1 [Cmpd 16] |  |  | % inhibition A1 [1]: (10% ± 5%); % inhibition A2A [2]: (15% ± 3%)
7 |  |  | 13.8 ± 5.1% | O[C@@H]1[C@H](O)[C@@H]2C[C@@H]2[C@H]1n1cnc2c(NCc3cccc(Cl)c3)nc(C#Cc3ccccc3)nc21 [Cmpd 11] | (37% ± 4%) |  | 

Further lines, the molecule ahead of its results:

Row | Structure (SMILES) | % inhibition A1 [3] | % inhibition A2A [4] | % efficacy [5] | % inhibition A1 [7] | % inhibition A2A [8] | also measured
8 | CNC(=O)C12CC1C(n1cnc3c(NCCc4ccccc4)nc(C#Cc4ccccc4)nc31)C(O)C2O (stereo not drawn) [Cmpd 17] | (25% ± 5%) | (1% ± 1%) | 105.3 ± 9.8% |  |  | % inhibition A1 [1]: (11% ± 3%); % inhibition A2A [2]: (32% ± 4%); % efficacy [6]: 114.6 ± 14.6%
9 | CNC(=O)C12CC1C(n1cnc3c(NCc4cccc(Cl)c4)nc(C#Cc4ccc(S(=O)(=O)O)cc4)nc31)C(O)C2O (stereo not drawn) [Cmpd 6] |  | (14% ± 4%) | 98.6 ± 5.7% |  |  | % inhibition A2A [2]: (23% ± 3%); % efficacy [6]: 95.7 ± 19.1%
10 | CNC(=O)C12CC1C(n1cnc3c(NCc4cccc(Cl)c4)nc(C#Cc4cccc(S(=O)(=O)O)c4)nc31)C(O)C2O (stereo not drawn) [Cmpd 7] | (15% ± 2%) | (1% ± 1%) | 98.2 ± 6.7% |  |  | % inhibition A1 [1]: (16% ± 3%); % inhibition A2A [2]: (7% ± 6%); % efficacy [6]: 89.3 ± 7.1%
11 | CCNc1nc(C#Cc2ccccc2Cl)nc2c1ncn2[C@H]1[C@H](O)[C@H](O)[C@@H]2C[C@@H]21 [Cmpd 10] | (47% ± 8%) | (11% ± 1%) | 7.0 ± 5.2% | (25% ± 11%) | (17% ± 6%) | % inhibition A3 [9]: (50% ± 9%)
12 | CNc1nc(C#Cc2ccccc2)nc2c1ncn2[C@H]1[C@H](O)[C@H](O)[C@@H]2C[C@@H]21 [Cmpd 8] |  | (8% ± 3%) | 12.6 ± 4.0% | (18% ± 1%) | (18% ± 3%) | 
13 | CNC(=O)[C@@]12C[C@@H]1[C@@H](n1cnc3c(NC)nc(C#Cc4ccc(Cl)s4)nc31)[C@H](O)[C@@H]2O [MRS5980] |  |  |  |  |  | ADP-dependent dissipation of mitochondrial membrane potential (ΔΨm) ([10]; 10 μM prior to ADP (1 mM)): lessened; Calcium-dependent dissipation of mitochondrial ΔΨm ([10]; 10 μM, Ca2+ 0.5-15 μM): sustained; ATP production following stimulation of Complex I and II ([11]; explants from oxaliplatin-treated rats, day 25): reverses oxaliplatin-induced deficiencies in ATP production; ATP production following stimulation of Complex I and II ([11]; explants from vehicle-treated rats): modestly enhanced ATP production
14 | CCNc1nc(C#Cc2ccccc2)nc2c1ncn2[C@H]1[C@H](O)[C@H](O)[C@@H]2C[C@@H]21 [Cmpd 9] | (49% ± 6%) | (49% ± 2%) | 0.8 ± 5.2% | (36% ± 4%) | (42% ± 4%) | 
15 | CC(=O)O[C@H]1C(=O)[C@@]2(C)[C@H]([C@H](OC(=O)c3ccccc3)[C@]3(O)C[C@H](OC(=O)[C@H](O)[C@@H](NC(=O)c4ccccc4)c4ccccc4)C(C)=C1C3(C)C)[C@]1(OC(C)=O)CO[C@@H]1C[C@@H]2O [paclitaxel] |  |  |  |  |  | Incidence of IENFs vs. Naive rats [12]: statistically significantly fewer IENFs
16 | O=C1[O][Pt]2([NH][C@@H]3CCCC[C@H]3[NH]2)[O]C1=O [oxaliplatin, reference compound] |  |  |  |  |  | Mechano-hypersensitivity (Paw Withdrawal Threshold) [13]: produces mechano-hypersensitivity; Incidence of IENFs vs. Naive rats [14]: statistically significantly fewer IENFs
